From PubChem BioAssay AID1963852 (Molecular Pharmacology Branch, DTP, NCI, 2024)

Tested on: 282377-053-R-J1-PDC complex spheroid viability
Assay: Anticancer human tumor 282377-053-R-J1-PDC patient-derived colon adenocarcinoma cell line growth inhibition [POLQ]
Conditions: for IC50: curve of first compound; for viability, T/C: stronger effect = lower value
Procedure, shortened: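 Patient-derived tumour cells were co-cultured with HUVEC and mesenchymal stem cells as multicellular spheroids at 37 °C. They were treated with POLQ inhibitors (novobiocin, ART-558, RP6685) alone or combined with other agents. Top concentrations were at or near clinical Cmax (otherwise 10 microM; SN-38 at 1 microM), decreasing in half-log steps.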

[1] = second compound 0.0316 µM, first compound 0.0316 µM
[2] = second compound 0.0316 µM, first compound 0.1 µM
[3] = second compound 0.0316 µM, first compound 0.316 µM
[4] = second compound 0.0316 µM, first compound 1 µM
[5] = second compound 0.0316 µM, first compound 3.16 µM
[6] = second compound 0.0316 µM, first compound 10 µM
[7] = second compound 0.1 µM, first compound 0.0316 µM
[8] = second compound 0.1 µM, first compound 0.1 µM
[9] = second compound 0.1 µM, first compound 0.316 µM
[10] = second compound 0.1 µM, first compound 1 µM
[11] = second compound 0.1 µM, first compound 3.16 µM
[12] = second compound 0.1 µM, first compound 10 µM
[13] = second compound 0.316 µM, first compound 0.0316 µM
[14] = second compound 0.316 µM, first compound 0.1 µM
[15] = second compound 0.316 µM, first compound 0.316 µM
[16] = second compound 0.316 µM, first compound 1 µM
[17] = second compound 0.316 µM, first compound 3.16 µM
[18] = second compound 0.316 µM, first compound 10 µM
[19] = second compound 1 µM, first compound 0.0316 µM
[20] = second compound 1 µM, first compound 0.1 µM
[21] = second compound 1 µM, first compound 0.316 µM
[22] = second compound 1 µM, first compound 1 µM
[23] = second compound 1 µM, first compound 3.16 µM
[24] = second compound 1 µM, first compound 10 µM
[25] = second compound 3.16 µM, first compound 0.0316 µM
[26] = second compound 3.16 µM, first compound 0.1 µM
[27] = second compound 3.16 µM, first compound 0.316 µM
[28] = second compound 3.16 µM, first compound 1 µM
[29] = second compound 3.16 µM, first compound 3.16 µM
[30] = second compound 3.16 µM, first compound 10 µM
[31] = second compound 10 µM, first compound 0.0316 µM
[32] = second compound 10 µM, first compound 0.1 µM
[33] = second compound 10 µM, first compound 0.316 µM
[34] = second compound 10 µM, first compound 1 µM
[35] = second compound 10 µM, first compound 3.16 µM
[36] = second compound 10 µM, first compound 10 µM
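Also: spheroids exposed to compounds for seven days.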
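For viability, T/C in this document: 100% = DMSO vehicle control viability.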

Nc1ccn(C2OC(CO)C(O)C2(F)F)c(=O)n1 (stereo unspecified) + Nc1ccc(C#CCN(C(=O)Cc2ncc(C(F)(F)F)cc2C(F)(F)F)c2ccc(F)cc2)nn1
IC50 (second compound 0.0316 µM): > 10 µM | IC50 (second compound 0.1 µM): > 10 µM | IC50 (second compound 0.316 µM): > 10 µM | IC50 (second compound 1 µM): > 10 µM | IC50 (second compound 3.16 µM): > 10 µM | IC50 (second compound 10 µM): > 10 µM | viability, T/C [1]: 118% | viability, T/C [2]: 128% | viability, T/C [3]: 122% | viability, T/C [4]: 83.3% | viability, T/C [5]: 84.4% | viability, T/C [6]: 68.4% | viability, T/C [7]: 101% | viability, T/C [8]: 112% | viability, T/C [9]: 109% | viability, T/C [10]: 101% | viability, T/C [11]: 80.4% | viability, T/C [12]: 65.4% | viability, T/C [13]: 115% | viability, T/C [14]: 98.8% | viability, T/C [15]: 107% | viability, T/C [16]: 95.7% | viability, T/C [17]: 83% | viability, T/C [18]: 56.2% | viability, T/C [19]: 104% | viability, T/C [20]: 93.8% | viability, T/C [21]: 108% | viability, T/C [22]: 92.6% | viability, T/C [23]: 81% | viability, T/C [24]: 67.7% | viability, T/C [25]: 115% | viability, T/C [26]: 116% | viability, T/C [27]: 117% | viability, T/C [28]: 107% | viability, T/C [29]: 108% | viability, T/C [30]: 78.8% | viability, T/C [31]: 124% | viability, T/C [32]: 120% | viability, T/C [33]: 127% | viability, T/C [34]: 124% | viability, T/C [35]: 114% | viability, T/C [36]: 90.5%

O=C(c1cc(Cc2n[nH]c(=O)c3ccccc23)ccc1F)N1CCN(C(=O)C2CC2)CC1 + Nc1ccc(C#CCN(C(=O)Cc2ncc(C(F)(F)F)cc2C(F)(F)F)c2ccc(F)cc2)nn1
IC50 (second compound 0.0316 µM): > 10 µM | IC50 (second compound 0.1 µM): > 10 µM | IC50 (second compound 0.316 µM): > 10 µM | IC50 (second compound 1 µM): > 10 µM | IC50 (second compound 3.16 µM): > 10 µM | IC50 (second compound 10 µM): > 10 µM | viability, T/C [1]: 114% | viability, T/C [2]: 104% | viability, T/C [3]: 101% | viability, T/C [4]: 105% | viability, T/C [5]: 121% | viability, T/C [6]: 105% | viability, T/C [7]: 112% | viability, T/C [8]: 123% | viability, T/C [9]: 98.6% | viability, T/C [10]: 102% | viability, T/C [11]: 117% | viability, T/C [12]: 118% | viability, T/C [13]: 113% | viability, T/C [14]: 97.1% | viability, T/C [15]: 104% | viability, T/C [16]: 95.2% | viability, T/C [17]: 109% | viability, T/C [18]: 94.8% | viability, T/C [19]: 119% | viability, T/C [20]: 103% | viability, T/C [21]: 105% | viability, T/C [22]: 110% | viability, T/C [23]: 112% | viability, T/C [24]: 109% | viability, T/C [25]: 111% | viability, T/C [26]: 109% | viability, T/C [27]: 111% | viability, T/C [28]: 106% | viability, T/C [29]: 118% | viability, T/C [30]: 115% | viability, T/C [31]: 122% | viability, T/C [32]: 106% | viability, T/C [33]: 130% | viability, T/C [34]: 121% | viability, T/C [35]: 129% | viability, T/C [36]: 127%

O=c1[nH]cc(F)c(=O)[nH]1 + Nc1ccc(C#CCN(C(=O)Cc2ncc(C(F)(F)F)cc2C(F)(F)F)c2ccc(F)cc2)nn1
IC50 (second compound 0.0316 µM): > 10 µM | IC50 (second compound 0.1 µM): > 10 µM | IC50 (second compound 0.316 µM): > 10 µM | IC50 (second compound 1 µM): > 10 µM | IC50 (second compound 3.16 µM): > 10 µM | IC50 (second compound 10 µM): > 10 µM | viability, T/C [1]: 115% | viability, T/C [2]: 107% | viability, T/C [3]: 142% | viability, T/C [4]: 117% | viability, T/C [5]: 89.9% | viability, T/C [6]: 95.1% | viability, T/C [7]: 107% | viability, T/C [8]: 126% | viability, T/C [9]: 109% | viability, T/C [10]: 91.6% | viability, T/C [11]: 95.1% | viability, T/C [12]: 94.5% | viability, T/C [13]: 118% | viability, T/C [14]: 98% | viability, T/C [15]: 111% | viability, T/C [16]: 99.1% | viability, T/C [17]: 87.5% | viability, T/C [18]: 90.7% | viability, T/C [19]: 106% | viability, T/C [20]: 103% | viability, T/C [21]: 116% | viability, T/C [22]: 108% | viability, T/C [23]: 112% | viability, T/C [24]: 95.1% | viability, T/C [25]: 119% | viability, T/C [26]: 122% | viability, T/C [27]: 121% | viability, T/C [28]: 118% | viability, T/C [29]: 98.8% | viability, T/C [30]: 85.9% | viability, T/C [31]: 123% | viability, T/C [32]: 128% | viability, T/C [33]: 124% | viability, T/C [34]: 134% | viability, T/C [35]: 90% | viability, T/C [36]: 111%
